Laboratory results taken from BigSolDB 2.1.

Cl.NC1CCSC1=O (racemic)
solubility (mole fraction)
Settings	in 1,4-dioxane	in 2-butanone	in acetone	in acetonitrile	in dichloromethane	in ethanol	in ethyl acetate	in isopropanol	in methanol
283.15 K	–	0.000125	0.000115	4.5e-05	6.4e-05	0.00319	0.000238	0.000521	0.0154
288.15 K	–	–	–	–	0.000114	–	–	–	–
293.15 K	0.0005	0.00021	0.000202	8.7e-05	0.000171	0.00413	0.000281	0.000786	0.0187
298.15 K	–	–	–	–	0.000262	–	–	–	–
303.15 K	0.000691	0.000307	0.00026	0.000135	0.000356	0.00509	0.000342	0.00116	0.0226
308.15 K	0.000783	–	–	–	–	–	–	–	–
313.15 K	0.000872	0.000361	0.000331	0.000175	–	0.00627	0.000385	0.00154	0.0272
323.15 K	0.000995	0.000431	0.000439	0.000212	–	0.00766	0.000458	0.00187	0.0326
